Measurements taken from publication PMC12509308, “Stereochemistry and Charged State Influence Effector Outcomes of D‑2-Hydroxyglutarate Dehydrogenase Ligands” (Biochemistry, 2025).

T1: PaD2HGDH (Pseudomonas aeruginosa, UniProt Q9I6H4)
T1 construct: gene PA0317; full-length wild type, C-terminal 6x-His tag kept, pET20b(+), expressed in E. coli Rosetta(DE3)pLysS, Ni-NTA purified
T1 sequence (Q9I6H4 1-464): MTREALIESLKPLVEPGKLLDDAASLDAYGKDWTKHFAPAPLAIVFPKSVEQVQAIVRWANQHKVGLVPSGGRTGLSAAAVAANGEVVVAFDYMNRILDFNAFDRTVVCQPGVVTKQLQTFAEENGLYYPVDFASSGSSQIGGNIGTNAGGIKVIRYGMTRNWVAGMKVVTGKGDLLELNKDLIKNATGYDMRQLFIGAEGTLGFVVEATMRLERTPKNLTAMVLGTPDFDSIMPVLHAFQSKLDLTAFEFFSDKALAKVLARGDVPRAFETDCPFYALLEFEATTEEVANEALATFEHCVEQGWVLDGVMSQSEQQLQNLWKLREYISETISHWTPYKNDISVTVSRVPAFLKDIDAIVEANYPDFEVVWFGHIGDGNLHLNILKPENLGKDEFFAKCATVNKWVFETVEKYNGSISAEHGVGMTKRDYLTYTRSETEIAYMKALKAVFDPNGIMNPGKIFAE

B1: PaD2HGDH (Pseudomonas aeruginosa PAO1) (protein)
chain: MTREALIESLKPLVEPGKLLDDAASLDAYGKDWTKHFAPAPLAIVFPKSVEQVQAIVRWANQHKVGLVPSGGRTGLSAAAVAANGEVVVAFDYMNRILDFNAFDRTVVCQPGVVTKQLQTFAEENGLYYPVDFASSGSSQIGGNIGTNAGGIKVIRYGMTRNWVAGMKVVTGKGDLLELNKDLIKNATGYDMRQLFIGAEGTLGFVVEATMRLERTPKNLTAMVLGTPDFDSIMPVLHAFQSKLDLTAFEFFSDKALAKVLARGDVPRAFETDCPFYALLEFEATTEEVANEALATFEHCVEQGWVLDGVMSQSEQQLQNLWKLREYISETISHWTPYKNDISVTVSRVPAFLKDIDAIVEANYPDFEVVWFGHIGDGNLHLNILKPENLGKDEFFAKCATVNKWVFETVEKYNGSISAEHGVGMTKRDYLTYTRSETEIAYMKALKAVFDPNGIMNPGKIFAE
notes: full-length wild type, C-terminal 6x-His tag kept, pET20b(+), expressed in E. coli Rosetta(DE3)pLysS, Ni-NTA purified

Legend:
PaD2HGDH = molecular target: T1, PaD2HGDH; assay: PMS-driven oxygen consumption, initial rates, steady-state inhibition; format: biochemical; details: read-out: Kis
Text: PMS-driven oxygen consumption, initial rates, steady-state inhibition on PaD2HGDH

[1] = substrate: O=C(O)C[C@@H](O)C(=O)O; assay: PMS-driven oxygen consumption, initial rates, global fit of inhibition data; format: biochemical, Pseudomonas aeruginosa; details: fitted in the oxaloacetate inhibition assay (Ka extrapolated to no inhibitor), D-malate 1-60 mM, 1 mM PMS, 25 mM NaPO4 pH 7.4, 25 °C
Text: PMS-driven oxygen consumption, initial rates, global fit of inhibition data on PaD2HGDH

| Molecule | Ki (PaD2HGDH) | Km [1] | kcat [1] |
| --- | --- | --- | --- |
| O=C(O)C(O)c1ccc(O)c(O)c1 (racemic) [D/L-3,4-Dihydroxymandelate] | 4.1 ± 0.3 mM |  |  |
| O=C(O)C(O)c1ccc(O)cc1 (racemic) [D/L-4-Hydroxymandelate] | 6.5 ± 0.7 mM |  |  |
| O=C(O)CC(C(=O)O)C(O)C(=O)O (racemic) [D/L-Isocitrate] | 7.8 ± 0.4 mM |  |  |
| O=C(O)CCC(=O)C(=O)O [2-Ketoglutarate] | 4.3 ± 0.3 mM |  |  |
| O=C(O)[C@H](O)c1ccccc1 [D-Mandelate] | 18.4 ± 0.6 mM |  |  |
| O=C(O)CC[C@H](O)C(=O)O [L-2-Hydroxyglutarate] | 4.1 ± 0.4 mM |  |  |
| O=C(O)C[C@H](O)C(=O)O [L-Malate] | 14.6 ± 1.5 mM |  |  |
| O=C(O)CC(=O)C(=O)O [Oxaloacetate] | 2.02 ± 0.03 mM |  |  |
| O=C(O)C(O)C(=O)O [Tartronate] | 18.6 ± 1.3 mM |  |  |
| B1 |  | 8.4 ± 0.1 mM | 29.1 ± 0.1 s⁻¹ |
